# Measurements published in ChEMBL document CHEMBL1130155, “Synthesis and structure-activity relationships of potent thrombin inhibitors: piperazides of 3-amidinophenylalanine” (J Med Chem, 1997).
# Tests used:
# [1] = biological target: T1, Prothrombin (Bos taurus, UniProt P00735); assay: Inhibitory activity against thrombin.
# [2] = biological target: T2, Coagulation factor XII (Homo sapiens, UniProt P00748); assay: Inhibitory activity against Coagulation factor XII
# T2 sequence (P00748 whole entry): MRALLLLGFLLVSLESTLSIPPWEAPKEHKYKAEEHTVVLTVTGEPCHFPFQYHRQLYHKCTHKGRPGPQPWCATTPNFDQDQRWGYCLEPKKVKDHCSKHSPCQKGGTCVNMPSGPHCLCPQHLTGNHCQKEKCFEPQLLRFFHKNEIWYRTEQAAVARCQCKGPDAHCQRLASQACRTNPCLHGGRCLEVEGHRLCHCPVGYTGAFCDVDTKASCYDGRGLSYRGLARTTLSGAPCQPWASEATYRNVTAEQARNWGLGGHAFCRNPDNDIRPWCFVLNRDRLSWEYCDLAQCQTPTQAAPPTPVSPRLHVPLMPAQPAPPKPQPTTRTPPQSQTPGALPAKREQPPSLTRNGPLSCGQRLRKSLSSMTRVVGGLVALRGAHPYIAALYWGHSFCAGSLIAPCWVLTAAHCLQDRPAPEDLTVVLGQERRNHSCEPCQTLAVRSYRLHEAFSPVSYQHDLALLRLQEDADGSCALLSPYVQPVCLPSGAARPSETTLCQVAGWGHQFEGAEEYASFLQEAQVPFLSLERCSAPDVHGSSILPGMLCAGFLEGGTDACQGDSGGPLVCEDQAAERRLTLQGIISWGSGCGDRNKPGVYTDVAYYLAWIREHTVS
# [3] = Concentration for doubling of thrombin time; format: functional, Homo sapiens
# [4] = biological target: T3, Serine protease 1 (Bos taurus, UniProt P00760); assay: Inhibitory activity against trypsin
# T3 sequence (P00760 whole entry): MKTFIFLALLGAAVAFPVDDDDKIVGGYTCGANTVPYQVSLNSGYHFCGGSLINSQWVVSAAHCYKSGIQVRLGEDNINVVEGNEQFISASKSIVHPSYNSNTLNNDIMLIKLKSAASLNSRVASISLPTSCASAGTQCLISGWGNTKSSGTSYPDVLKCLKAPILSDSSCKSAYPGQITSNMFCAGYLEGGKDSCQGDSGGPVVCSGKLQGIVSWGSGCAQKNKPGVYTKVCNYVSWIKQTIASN
# [5] = Concentration for doubling of prothrombin time; format: functional, Homo sapiens
# [6] = biological target: Tissue-type plasminogen activator (Homo sapiens, UniProt P00750); assay: Inhibitory activity against single-chain tissue-type plasminogen activator (sc-tissue plasminogen activator)
# [7] = biological target: Plasminogen (Homo sapiens, UniProt P00747); assay: Inhibitory activity against Plasmin.
# [8] = biological target: Vitamin K-dependent protein C (Homo sapiens, UniProt P04070); assay: Inhibitory activity against Activated protein C
# [9] = Concentration for doubling of partial thromboplastin time; format: functional, Homo sapiens
# [10] = biological target: T1, Prothrombin
# [11] = biological target: Coagulation factor X (Bos taurus, UniProt P00743); assay: Inhibitory activity against coagulation factor X.
# [12] = biological target: T4, Urokinase-type plasminogen activator (Homo sapiens, UniProt P00749); assay: Inhibitory activity against urokinase (UK )
# [13] = biological target: T5, Plasma kallikrein (Homo sapiens, UniProt P03952); assay: Inhibitory activity against plasma kallikrein (PK.); format: cell-free
# [14] = 50 mg/kg was administered orally in anesthetized rats and the concentration in plasma was determined after 60 minutes.; conditions: rat, po
# [15] = 1 mg/kg was administered intravenously in anesthetized rats and the concentration in plasma was determined after 90 minutes.; conditions: rat, iv
# [16] = 50 mg/kg was administered orally in anesthetized rats and the concentration in plasma was determined after 15 minutes.; format: ADME, organism-based; conditions: rat, po, read-out: Activity
# [17] = 50 mg/kg was administered orally in anesthetized rats and the concentration in plasma was determined after 5 minutes.; format: ADME, organism-based; conditions: rat, po, read-out: Activity
# [18] = 1 mg/kg was administered intravenously in anesthetized rats and the concentration in plasma was determined after 120 minutes.; conditions: rat, iv
# [19] = biological target: T5, Plasma kallikrein; assay: Inhibitory activity against Kallikrein (PK)
# [20] = 1 mg/kg was administered intravenously in anesthetized rats and the concentration in plasma was determined after 60 minutes.; conditions: rat, iv
# [21] = 1 mg/kg was administered intravenously in anesthetized rats and the concentration in plasma was determined after 240 minutes.; conditions: rat, iv
# [22] = 1 mg/kg was administered intravenously in anesthetized rats and the concentration in plasma was determined after 30 minutes.; conditions: rat, iv
# [23] = 1 mg/kg was administered intravenously in anesthetized rats and the concentration in plasma was determined after 15 minutes.; conditions: rat, iv
# [24] = 50 mg/kg was administered orally in anesthetized rats and the concentration in plasma was determined after 45 minutes.; format: ADME, organism-based; conditions: rat, po, read-out: Activity
# [25] = 1 mg/kg was administered intravenously in anesthetized rats and the concentration in plasma was determined after 45 minutes.; conditions: rat, iv
# [26] = 1 mg/kg was administered intravenously in anesthetized rats and the concentration in plasma was determined after 180 minutes.; conditions: rat, iv
# [27] = 1 mg/kg was administered intravenously in anesthetized rats and the concentration in plasma was determined after 5 minutes.; conditions: rat, iv
# [28] = biological target: T4, Urokinase-type plasminogen activator; assay: Inhibitory activity against UK.
# [29] = 50 mg/kg was administered orally in anesthetized rats and the concentration in plasma was determined after 120 minutes.; conditions: rat, po
# [30] = 50 mg/kg was administered orally in anesthetized rats and the concentration in plasma was determined after 30 minutes.; conditions: rat, po
# [31] = 50 mg/kg was administered orally in anesthetized rats and the concentration in plasma was determined after 180 minutes.; conditions: rat, po
# [32] = 1 mg/kg was administered intravenously in anesthetized rats and the concentration in plasma was determined after 2 minutes.; conditions: rat, iv
# [33] = 50 mg/kg was administered orally in anesthetized rats and the concentration in plasma was determined after 90 minutes.; format: ADME, organism-based; conditions: rat, po, read-out: Activity
# T5 sequence (P03952 20-390 limits assumed): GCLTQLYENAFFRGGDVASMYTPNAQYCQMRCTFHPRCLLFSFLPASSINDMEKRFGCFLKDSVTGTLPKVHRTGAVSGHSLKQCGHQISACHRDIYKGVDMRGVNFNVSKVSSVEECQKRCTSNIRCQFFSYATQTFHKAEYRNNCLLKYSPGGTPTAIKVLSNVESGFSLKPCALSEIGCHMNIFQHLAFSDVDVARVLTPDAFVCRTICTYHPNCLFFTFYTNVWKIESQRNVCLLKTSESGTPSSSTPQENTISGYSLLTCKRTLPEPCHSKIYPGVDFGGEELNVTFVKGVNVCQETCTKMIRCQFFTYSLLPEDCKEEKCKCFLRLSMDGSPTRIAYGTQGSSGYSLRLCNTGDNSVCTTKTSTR
# T5 sequence (P03952 391-638 limits assumed): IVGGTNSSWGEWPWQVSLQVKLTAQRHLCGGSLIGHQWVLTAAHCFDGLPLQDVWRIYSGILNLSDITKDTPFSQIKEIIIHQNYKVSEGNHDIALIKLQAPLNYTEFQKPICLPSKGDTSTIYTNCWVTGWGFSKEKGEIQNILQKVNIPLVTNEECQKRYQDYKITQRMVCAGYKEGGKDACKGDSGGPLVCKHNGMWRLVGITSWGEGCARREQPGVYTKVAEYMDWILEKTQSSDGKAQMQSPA
# Sequence of Plasminogen (P00747 97-580 limits assumed): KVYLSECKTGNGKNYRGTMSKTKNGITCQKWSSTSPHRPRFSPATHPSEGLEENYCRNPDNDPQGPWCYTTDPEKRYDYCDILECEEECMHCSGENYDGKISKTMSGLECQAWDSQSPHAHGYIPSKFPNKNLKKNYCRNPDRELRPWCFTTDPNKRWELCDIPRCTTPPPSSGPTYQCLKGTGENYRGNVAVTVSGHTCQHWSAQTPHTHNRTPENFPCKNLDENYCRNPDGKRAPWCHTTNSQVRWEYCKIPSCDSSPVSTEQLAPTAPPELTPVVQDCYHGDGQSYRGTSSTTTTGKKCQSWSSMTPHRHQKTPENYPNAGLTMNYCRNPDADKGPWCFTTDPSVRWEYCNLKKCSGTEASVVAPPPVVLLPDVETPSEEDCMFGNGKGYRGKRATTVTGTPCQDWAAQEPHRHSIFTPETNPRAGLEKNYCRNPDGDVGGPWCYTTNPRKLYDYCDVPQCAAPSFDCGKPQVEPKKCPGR
# Sequence of Plasminogen (P00747 581-810 limits assumed): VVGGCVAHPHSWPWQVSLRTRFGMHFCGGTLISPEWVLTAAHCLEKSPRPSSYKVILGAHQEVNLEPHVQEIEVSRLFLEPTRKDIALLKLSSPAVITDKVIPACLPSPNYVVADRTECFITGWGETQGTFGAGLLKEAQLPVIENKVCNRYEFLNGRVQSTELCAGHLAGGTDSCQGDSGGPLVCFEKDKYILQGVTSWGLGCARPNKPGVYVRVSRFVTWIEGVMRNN
# Sequence of Vitamin K-dependent protein C (P04070 43-197 limits assumed): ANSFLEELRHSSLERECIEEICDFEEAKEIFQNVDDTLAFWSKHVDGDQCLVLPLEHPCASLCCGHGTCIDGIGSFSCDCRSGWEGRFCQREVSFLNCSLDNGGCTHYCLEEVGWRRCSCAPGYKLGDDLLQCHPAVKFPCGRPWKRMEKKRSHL
# Sequence of Vitamin K-dependent protein C (P04070 212-461 limits assumed): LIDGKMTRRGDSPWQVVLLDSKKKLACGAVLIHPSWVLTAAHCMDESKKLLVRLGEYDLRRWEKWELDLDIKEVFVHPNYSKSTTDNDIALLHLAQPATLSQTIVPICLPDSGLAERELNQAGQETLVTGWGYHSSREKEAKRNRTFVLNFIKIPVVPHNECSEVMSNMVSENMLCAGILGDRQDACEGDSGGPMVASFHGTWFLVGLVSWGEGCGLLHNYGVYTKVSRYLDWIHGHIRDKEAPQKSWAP
# Sequence of Tissue-type plasminogen activator (P00750 whole entry): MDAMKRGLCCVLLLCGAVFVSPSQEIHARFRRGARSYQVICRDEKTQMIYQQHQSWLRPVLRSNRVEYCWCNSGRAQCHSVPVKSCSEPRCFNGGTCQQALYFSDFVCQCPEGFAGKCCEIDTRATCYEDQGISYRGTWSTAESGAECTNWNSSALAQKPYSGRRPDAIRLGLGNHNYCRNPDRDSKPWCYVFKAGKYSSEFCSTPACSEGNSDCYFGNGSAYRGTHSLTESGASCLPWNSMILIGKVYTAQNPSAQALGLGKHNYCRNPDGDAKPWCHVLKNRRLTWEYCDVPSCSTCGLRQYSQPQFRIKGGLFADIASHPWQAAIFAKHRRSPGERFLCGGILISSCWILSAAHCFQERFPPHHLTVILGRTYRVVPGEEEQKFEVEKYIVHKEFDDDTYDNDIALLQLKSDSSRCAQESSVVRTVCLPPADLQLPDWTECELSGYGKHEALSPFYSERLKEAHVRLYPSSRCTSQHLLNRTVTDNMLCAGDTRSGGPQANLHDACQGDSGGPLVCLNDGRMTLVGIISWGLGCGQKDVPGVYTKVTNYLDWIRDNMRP
# Sequence of Coagulation factor X (P00743 41-180 limits assumed): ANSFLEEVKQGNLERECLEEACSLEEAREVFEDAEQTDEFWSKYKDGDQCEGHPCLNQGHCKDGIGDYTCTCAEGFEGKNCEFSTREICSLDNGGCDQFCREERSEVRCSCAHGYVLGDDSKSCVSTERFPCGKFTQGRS
# Sequence of Coagulation factor X (P00743 234-492 limits assumed): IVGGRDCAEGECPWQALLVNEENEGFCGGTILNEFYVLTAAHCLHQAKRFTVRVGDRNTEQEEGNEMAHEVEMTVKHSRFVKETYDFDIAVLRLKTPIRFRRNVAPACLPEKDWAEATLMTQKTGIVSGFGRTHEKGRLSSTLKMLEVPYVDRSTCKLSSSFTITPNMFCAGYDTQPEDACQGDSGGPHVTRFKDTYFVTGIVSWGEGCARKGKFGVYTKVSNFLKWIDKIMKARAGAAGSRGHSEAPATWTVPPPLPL
SMILES,Ki [2] [µM],IC50 [3] [µM],Ki [4] [µM],IC50 [5] [µM],Ki [6] [µM],Ki [7] [µM],Ki [8] [µM],IC50 [9] [µM],Ki [10] [µM],Ki [11] [µM],Ki [19] [µM],Ki [28] [µM],further results
CC1CCN(C(=O)[C@@H](Cc2cccc(C(=N)N)c2)NS(=O)(=O)c2ccc3ccccc3c2)CC1,,,,,,,,,,,,,Ki [1]: 0.0025 µM
CN1CCN(C(=O)[C@@H](Cc2cccc(C(=N)N)c2)NS(=O)(=O)c2ccc3ccccc3c2)CC1,280,0.22,0.47,1.8,> 1000,30,94,1.2,0.016,19,,,Ki [12]: 110 µM; Ki [13]: 35 µM
CC(=O)N1CCN(C(=O)[C@@H](Cc2cccc(C(=N)N)c2)NS(=O)(=O)c2ccc3ccccc3c2)CC1,200,0.062,0.044,0.76,410,5.2,12,0.28,,34,15,32,concentration at 1 h [14]: 380 ng/mL; concentration at 1.5 h [15]: 100 ng/mL; concentration at 0.25 h [16]: 410 ng/mL; concentration at 5 min [17]: 230 ng/mL; concentration at 2 h [18]: 90 ng/mL; concentration at 1 h [20]: 130 ng/mL; concentration at 4 h [21]: < 40 ng/mL; concentration at 0.5 h [22]: 270 ng/mL; concentration at 0.25 h [23]: 610 ng/mL; concentration at 0.75 h [24]: 410 ng/mL; concentration at 0.75 h [25]: 170 ng/mL; concentration at 3 h [26]: < 40 ng/mL; concentration at 5 min [27]: 2080 ng/mL; concentration at 2 h [29]: 260 ng/mL; concentration at 0.5 h [30]: 450 ng/mL; concentration at 3 h [31]: 300 ng/mL; concentration at 2 min [32]: 3550 ng/mL; concentration at 1.5 h [33]: 270 ng/mL
CN(C)C(=O)N1CCN(C(=O)[C@@H](Cc2cccc(C(=N)N)c2)NS(=O)(=O)c2ccc3ccccc3c2)CC1,61,0.042,0.097,0.72,> 1000,4.9,13.5,0.39,0.004,16,7.3,28,
